Test results reported in patent US20210161997A1, “TREATING DISEASES VIA TARGETED MODULATION OF GENE SIGNALING NETWORKS” (Camp4 Therapeutics Corporation, priority 2018, published 2021).
Structures can show the parent of a compound that is named as a salt. Where two headings read alike, the source gives them in different places.

Columns and labels:
Format in all cases: cell-based
CPOX = test: RNA-seq of CPOX expression in compound-treated primary human hepatocytes
Experimental: (§1) Human hepatocytes were obtained from two donors from Massachusetts General Hospital, namely MGH54 and MGH63, and one donor from Lonza, namely HUM4111B. Cryopreserved hepatocytes were cultured in plating media for 16 hours, transferred to maintenance media for 4 hours. Cultured on serum-free media for 2 hours, then a compound was added. The hepatocytes were maintained on the serum-free media for 16 hours prior to gene expression analysis. Primary human hepatocytes were stored in the vapor phase of a liquid nitrogen freezer (about −130° C.).
(§2) Human hepatocytes cultured as described above were plated in 24-well format, adding 375,000 cells per well in a volume of 500 ul plating medium. Four hours before treatment, cells were washed with PBS and the medium was changed to either: fresh maintenance medium (complete) or modified maintenance medium.
(§3) Compound stocks were prepared at 1000× final concentration and added in a 2-step dilution to the medium to reduce risk of a compound precipitating out of solution when added to the cells, and to ensure reasonable pipetting volumes. One at a time, each compound was first diluted 10-fold in warm (about 37° C.) modified maintenance medium (initial dilution=ID), mixed by vortexing, and the ID was diluted 100-fold into the cell culture (e.g. 5.1 ul into 1 well of a 24-well plate containing 0.5 mL medium). The plate was mixed by carefully swirling and after all wells were treated and returned to the incubator overnight. If desired, separate plates/wells were treated with vehicle-only controls and/or positive controls. If using multi-well plates, controls were included on each plate. After about 18 hours, cells were harvested for further analysis, e.g., ChIP-seq, RNA-seq, ATAC-seq, etc.
(§4) This protocol is a modified version of the following protocols: MagMAX mirVana Total RNA Isolation Kit User Guide (Applied Biosystems #MAN0011131 Rev B.0), NEBNext Poly(A) mRNA Magnetic Isolation Module (E7490), and NEBNext Ultra Directional RNA Library Prep Kit for Illumina (E7420) (New England Biosystems #E74901).
(§5) The MagMAX mirVana kit instructions (the section titled “Isolate RNA from cells” on pages 14-17) were used for isolation of total RNA from cells in culture. Two hundred μl of Lysis Binding Mix was used per well of the multiwell plate containing adherent cells (usually a 24-well plate).
(§6) For mRNA isolation and library prep, the NEBNext Poly(A) mRNA Magnetic Isolation Module and Directional Prep kit was used. RNA isolated from cells above was quantified, and prepared in […] of each sample in 50 μl of nuclease-free water. This protocol may be run in microfuge tubes or in a 96-well plate.
(§7) Standard QC were applied (read integrity, mapping statistics, library complexity, fragment bias) to remove unsatisfactory samples. […] Log 2 fold change and significance values were computed using PME count data (with replicates explicitly modeled versus pan-experiment controls), median ratio normalized, using maximum likelihood estimation rather than maximum a posteriori, and disabling the use of Cook's distance cutoff when determining acceptable adjusted p-values. […] RNA-seq signals were also normalized by read depth and visualized using the UCSC browser.
(§8) To identify small molecules that modulate target gene expression, primary human hepatocytes were prepared as a monoculture, and at least one small molecule compound was applied to the cells.
(§9) RNA-seq was performed to determine the effects of the compounds on the expression of the target genes in hepatocytes. Fold change was calculated by dividing the level of expression in the cell system that had been perturbed by the level of expression in an unperturbed system. Changes in expression having a p-value ≤0.05 were considered significant.
Significance was defined as an FPKM ≥0.5 a log 2(fold change) ≥0.3, and a q-value of ≤0.05.

ANGPTL3 = test: RNA-seq of ANGPTL3 expression in compound-treated primary human hepatocytes; settings: additional compounds (Table 13), linear fold change
How it was run: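 Cryopreserved primary human hepatocytes from three donors, plated at 375,000 cells/well, switched to complete or modified maintenance medium, then dosed with compound (stocks at 1000× final) for about 18 h. Poly(A) mRNA was sequenced directionally, mapped to GRCh38 with STAR, and gene-level abundance (counts, FPKM) estimated with RSEM against GENCODE 24.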

FN1 = test: RNA-seq of FN1 expression in compound-treated primary human hepatocytes; settings: perturbed vs unperturbed, significance FPKM ≥1, log 2(fold change) ≥0.5, q-value ≤0.05
Experimental: as §1, §2, §3, §4, §5, §6
(§10) All pass filter reads from each sample were mapped against the human genome (assembly GRCh38/GCA_000001405.15 “no alt” analysis set merged with hs38d1/GCA_000786075.2) using two pass mapping via STAR version 2.5.3a (alignment parameters alignIntronMin=20; alignIntronMax=1000000; outFilterMismatchNmax=999; outFilterMismatchNoverLmax=0.05; outFilterType=BySJout; outFilterMultimapNmax=20; alignSJoverhangMin=8; alignSJDBoverhangMin=1; alignMatesGapMax=1000000) (Dobin et al., Bioinformatics (2012) 29(1):15-21). Genomic alignments were converted to transcriptome alignments based on reference transcript annotations from the Human GENCODE Gene Set release 24 (Harrow et al., Genome Res. (2012) 22(9): 1760-1774). Using unique and multimapped transcriptomic alignments, gene-level abundance estimates were computed using RSEM version 1.3.0 (Li and Dewey, BMC Bioinformatics (2011) 12:323) in a strand-aware manner, and including confidence interval sampling calculations, to arrive at posterior mean estimates (PME) of abundances (counts and normalized FPKM—fragments per kilobase of exon per million mapped fragments) from the underlying Bayesian model. Standard QC were applied (read integrity, mapping statistics, library complexity, fragment bias) to remove unsatisfactory samples.

LECT2 = test: RNA-seq of LECT2 expression in compound-treated primary human hepatocytes
Experimental: as §1, §2, §3, §4, §5, §6, §7, §8, §9
Significance was defined as an FPKM ≥1, a log 2(fold change) ≥0.5, and a q-value of ≤0.05 for all targets except for CPOX.

MECP2 mRNA [1] = test: MECP2 mRNA in primary human hepatocytes (donor 1, donor 2); settings: human hepatocytes donor-2, average fold change
Experimental: as §1, §2, §3
Samples were amplified using Taqman probes from ThermoFisher.

APOL1 = test: RNA-seq of APOL1 expression in compound-treated primary human hepatocytes; settings: RNAseq, 10 uM dose (Table 20); for mrna remaining at 10 µM: Homo sapiens, Hepatocyte, 16 h, read-out: APOL mRNA linear fold change
Experimental: as §1, §2, §3, §4, §5, §6, §10

MECP2 mRNA [2] = test: MECP2 mRNA in stellate cells; settings: average fold change
SERPINC1 mRNA = test: Quantitative PCR of SERPINC1 mRNA in primary human hepatocytes (Lonza Hu4282) treated with compounds; settings: 72 h treatment, HU4282 primary human hepatocytes, relative to DMSO control (FIG. 7)
SLC37A4 = test: RNA-seq of SLC37A4 expression in compound-treated primary human hepatocytes
Experimental: as §1, §2, §3, §4, §5, §6, §10

UGT1A1 = test: RNA-seq of UGT1A1 expression in compound-treated primary human hepatocytes
How it was run: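 Cryopreserved primary human hepatocytes from three donors were plated in 24-well format, then treated with compound diluted from 1000× stocks in serum-free maintenance medium for about 16–18 h. Poly(A) RNA-seq log2 fold change was computed against vehicle/pan-experiment controls. Significance required FPKM ≥1, log2FC ≥0.5 and q ≤0.05.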

C[N+]1(C)CCC(OC(=O)C(O)(c2ccccc2)C2CCCC2)C1 (stereo not shown) [Glycopyrrolate]
CPOX Fold change (Log2) (CPOX; RNA-seq, primary human hepatocytes, significance FPKM ≥0.5, log 2(fold change) ≥0.3, q-value ≤0.05): 0.31 Log2

O=C(O)CC[C@H]1CC[C@@](c2cc(F)ccc2F)(S(=O)(=O)c2ccc(Cl)cc2)CC1 [MK-0752]
CPOX Fold change (Log2) (CPOX): 0.34 Log2

CCc1nn(CCCN2CCN(c3cccc(Cl)c3)CC2)c(=O)n1CCOc1ccccc1 [Nefazodone]
CPOX Fold change (Log2) (CPOX): 0.35 Log2

NCC(=O)Nc1ccc(-n2nc(C(F)(F)F)cc2-c2ccc3c(ccc4ccccc43)c2)cc1 [OSU-03012]
ANGPTL3-LINEAR FOLD CHANGE (ANGPTL3): 0.4965
FN1 Fold Change (Log2) (FN1): −1.03 Log2
LECT2 Fold Change (Log2) (LECT2): −0.77 Log2

COc1ccc(-c2cc3c(C)nc(N)nc3n([C@H]3CC[C@H](OCCO)CC3)c2=O)cn1 [PF-04691502]
Human hep donor-2 MECP2 (Avg_FC) 1 uM (MECP2 mRNA [1]; compound 1 uM): 1.13
Human hep donor-2 MECP2 (Avg_FC) 10 uM (MECP2 mRNA [1]; compound 10 uM): 1.88
ANGPTL3-LINEAR FOLD CHANGE (ANGPTL3): 0.4506
APOL mRNA linear fold change (APOL1): 0.5141
Stellate MECP2 (Avg_FC) 1 uM (MECP2 mRNA [2]; compound 1 uM): 1.27
Stellate MECP2 (Avg_FC) 10 uM (MECP2 mRNA [2]; compound 10 uM): 2.78
SERPINC1 mRNA change in response to compound (SERPINC1 mRNA): dose dependent upregulation

COc1cc(Nc2ncc(F)c(Nc3ccc4c(n3)N(COP(=O)(O)O)C(=O)C(C)(C)O4)n2)cc(OC)c1OC [R788 (fostamatinib disodium hexahydrate), fostamatinib disodium hexahydrate]
SLC37A4 Fold Change (Log2) (SLC37A4): 0.74 Log2
UGT1A1 Fold Change (Log2) (UGT1A1): 0.85 Log2

Cc1c(C(=O)NN2CCCCC2)nn(-c2ccc(Cl)cc2Cl)c1-c1ccc(Cl)cc1 [Rimonabant]
ANGPTL3-LINEAR FOLD CHANGE (ANGPTL3): 0.4538
FN1 Fold Change (Log2) (FN1): −0.76 Log2
LECT2 Fold Change (Log2) (LECT2): −0.81 Log2

O=C(NCCCn1ccnc1)c1cc(-c2ccco2)on1 [SKL2001]
ANGPTL3-LINEAR FOLD CHANGE (ANGPTL3): 0.4323
CPOX Fold change (Log2) (CPOX): 0.45 Log2
FN1 Fold Change (Log2) (FN1): −0.81 Log2

CN[C@H]1CC[C@@H](c2ccc(Cl)c(Cl)c2)c2ccccc21 [Sertraline HCl]
ANGPTL3-LINEAR FOLD CHANGE (ANGPTL3): 0.3816
mrna remaining at 10 µM (APOL1): 64.6%

CCN(CC)CCNC(=O)c1c(C)[nH]c(/C=C2\C(=O)Nc3ccc(F)cc32)c1C [Sunitinib]
ANGPTL3-LINEAR FOLD CHANGE (ANGPTL3): 0.3035
mrna remaining at 10 µM (APOL1): 62%

CN1C(=O)c2sccc2N(C)c2nc(Nc3ccc(S(N)(=O)=O)cc3)ncc21 [XMU-MP-1]
CPOX Fold change (Log2) (CPOX): 0.37 Log2

C[C@]12C=CC(=O)C=C1CC[C@@H]1[C@@H]2C(=O)C[C@@]2(C)[C@H]1CC[C@]2(O)C(=O)CO [prednisone]
SLC37A4 Fold Change (Log2) (SLC37A4): 1.18 Log2
CPOX Fold change (Log2) (CPOX): 0.44 Log2
LECT2 Fold Change (Log2) (LECT2): −0.65 Log2

IGF-1: IGF-1R activator
SLC37A4 Fold Change (Log2) (SLC37A4): 0.60 Log2

TNF-a
SLC37A4 Fold Change (Log2) (SLC37A4): 0.64 Log2
